Experimental data reported in patent US20230219904A1 (SYNGENTA CROP PROTECTION AG, priority 2020, published 2023).

What was measured:
Assay type in all cases: in vivo
Settings in all cases: evaluated after 13 days
[1] = tested on: Ipomoea hederacea (IPOHE); experiment: Pre-emergence herbicidal glasshouse test (Table B1)
Method in brief: (§1)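 Application rate was 500 g/h unless otherwise indicated, as a spray prepared from acetone/water (50:50) containing 0.5% Tween 20. Treatment followed one day (pre-emergence) or 8 days (post-emergence) of glasshouse growth, and percentage plant damage was assessed 13 days later on a 1–5 scale.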

[2] = tested on: Abutilon theophrasti (ABUTH); experiment: as above
Method in brief: as §1

[3] = tested on: Amaranthus retoflexus (AMARE); experiment: as above
Method in brief: as §1

[4] = tested on: Echinochloa crus-galh (ECHCG); experiment: as above
Method in brief: as §1

Setaria faberi (SETFA) [5] = experiment: as above
Method in brief: as §1

[6] = tested on: Ipomoea hederacea (IPOHE); experiment: Post-emergence herbicidal glasshouse test (Table B1)
Method in brief: as §1

[7] = tested on: Abutilon theophrasti (ABUTH); experiment: as above
Method in brief: as §1

[8] = tested on: Amaranthus retoflexus (AMARE); experiment: as above
Method in brief: as §1

[9] = tested on: Echinochloa crus-galh (ECHCG); experiment: as above
Method in brief: as §1

Setaria faberi (SETFA) [10] = experiment: as above
Method in brief: as §1

Row | SMILES | PRE Application IPOHE, percentage damage on five-point scale ([1]; applied) | PRE Application ABUTH, percentage damage on five-point scale ([2]; applied at 500 g/h) | PRE Application AMARE, percentage damage on five-point scale ([3]; applied at 500 g/h) | PRE Application ECHCG, percentage damage on five-point scale ([4]; applied at 500 g/h) | PRE Application SETFA, percentage damage on five-point scale (Setaria faberi (SETFA) [5]; applied at 500 g/h) | POST Application IPOHE, percentage damage on five-point scale ([6]; applied at 500 g/h) | POST Application ABUTH, percentage damage on five-point scale ([7]; applied at 500 g/h) | POST Application AMARE, percentage damage on five-point scale ([8]; applied at 500 g/h) | POST Application ECHCG, percentage damage on five-point scale ([9]; applied at 500 g/h) | POST Application SETFA, percentage damage on five-point scale (Setaria faberi (SETFA) [10]; applied at 500 g/h) | PRE Application IPOHE, percentage damage on five-point scale ([1]; applied at 125 g/ha) | PRE Application ABUTH, percentage damage on five-point scale ([2]; applied at 125 g/ha) | PRE Application AMARE, percentage damage on five-point scale ([3]; applied at 125 g/ha) | PRE Application ECHCG, percentage damage on five-point scale ([4]; applied at 125 g/ha) | PRE Application SETFA, percentage damage on five-point scale (Setaria faberi (SETFA) [5]; applied at 125 g/ha) | POST Application IPOHE, percentage damage on five-point scale ([6]; applied at 125 g/ha) | POST Application ABUTH, percentage damage on five-point scale ([7]; applied at 125 g/ha) | POST Application AMARE, percentage damage on five-point scale ([8]; applied at 125 g/ha) | POST Application ECHCG, percentage damage on five-point scale ([9]; applied at 125 g/ha) | POST Application SETFA, percentage damage on five-point scale (Setaria faberi (SETFA) [10]; applied at 125 g/ha)
1 | CCn1nnnc1NC(=O)c1ccc(OC(F)(F)C(F)F)c(NC(=O)C2CC2)c1Cl [Compound 1.102] | 1 (1=0-19%) | 4 (4=60-79%) | 5 (5=80-100%) | 5 (5=80-100%) | 4 (4=60-79%) | 5 (5=80-100%) | 5 (5=80-100%) | 5 (5=80-100%) | 5 (5=80-100%) | 5 (5=80-100%) | – | – | – | – | – | – | – | – | – | –
2 | CCC(=O)Nc1c(OC(F)(F)C(F)F)ccc(C(=O)Nc2nnnn2CC)c1Cl [Compound 1.103] | 1 (1=0-19%) | 4 (4=60-79%) | 5 (5=80-100%) | 3 (3=40-59%) | 1 (1=0-19%) | 5 (5=80-100%) | 5 (5=80-100%) | 5 (5=80-100%) | 5 (5=80-100%) | 5 (5=80-100%) | – | – | – | – | – | – | – | – | – | –
3 | CCC(CC)C(=O)Nc1c(OC(F)(F)F)ccc(C(=O)Nc2nnnn2C)c1Cl [Compound 1.104] | 2 (2=20-39%) | 4 (4=60-79%) | 5 (5=80-100%) | 5 (5=80-100%) | 3 (3=40-59%) | 5 (5=80-100%) | 5 (5=80-100%) | 5 (5=80-100%) | 5 (5=80-100%) | 5 (5=80-100%) | – | – | – | – | – | – | – | – | – | –
4 | CCC(CC)C(=O)Nc1c(OC(F)(F)F)ccc(C(=O)Nc2nnnn2CC)c1Cl [Compound 1.105] | 2 (2=20-39%) | 5 (5=80-100%) | 5 (5=80-100%) | 5 (5=80-100%) | 3 (3=40-59%) | 5 (5=80-100%) | 5 (5=80-100%) | 5 (5=80-100%) | 5 (5=80-100%) | 5 (5=80-100%) | – | – | – | – | – | – | – | – | – | –
5 | Cn1nnnc1NC(=O)c1ccc(OC(F)(F)F)c(NC(=O)C(C)(C)C)c1Cl [Compound 1.107] | 4 (4=60-79%) | 5 (5=80-100%) | 5 (5=80-100%) | 5 (5=80-100%) | 5 (5=80-100%) | 5 (5=80-100%) | 5 (5=80-100%) | 5 (5=80-100%) | 5 (5=80-100%) | 5 (5=80-100%) | – | – | – | – | – | – | – | – | – | –
6 | Cn1nnnc1NC(=O)c1ccc(OC(F)F)c(NC(=O)c2ccccn2)c1Cl [Compound 1.108] | – | – | – | – | – | – | – | – | – | – | 2 (2=20-39%) | 4 (4=60-79%) | 5 (5=80-100%) | 2 (2=20-39%) | 3 (3=40-59%) | 4 (4=60-79%) | 4 (4=60-79%) | 5 (5=80-100%) | 5 (5=80-100%) | 4 (4=60-79%)
7 | CCn1nnnc1NC(=O)c1ccc(OC(F)(F)F)c(NC(=O)C2CCC2)c1Cl [Compound 1.111] | 1 (1=0-19%) | 4 (4=60-79%) | 5 (5=80-100%) | 4 (4=60-79%) | 1 (1=0-19%) | 5 (5=80-100%) | 5 (5=80-100%) | 5 (5=80-100%) | 5 (5=80-100%) | 1 (1=0-19%) | – | – | – | – | – | – | – | – | – | –
